Structures can show the parent of a compound that is named as a salt.
Each compound was assayed on L-687,414-induced hyperlocomotion (assay: Reversal of L-687,414-induced hyperlocomotion (Digiscan locomotor activity)). Conditions: Mus musculus, 0.5 h; dose ip 30 mg/kg at the same time as s.c. 50 mg/kg L-687,414; horizontal activity over 30 min.
Assay type: in vivo, mouse
From the text: The authors described that hyperlocomotion induced by L-687,414 was inhibited by a series of known antipsychotic drugs. […] These findings predict antipsychotic activity for the present compounds, making them useful for the treatment of positive (psychosis) and negative symptoms of schizophrenia, substance abuse, alcohol and drug addiction, obsessive-compulsive disorders, cognitive impairment, bipolar disorders, mood disorders, major depression, resistant depression, anxiety disorders, Alzheimer's disease, autism, Parkinson's disease, chronic pain, borderline personality disorder, sleep disturbances, chronic fatigue syndrome, stiffness, antiinflammatory effects in arthritis and balance problems.
The described compounds of formula I reduce L-687,414-induced hyperlocomotion. This was assessed by using a computerized Digiscan 16 Animal Activity Monitoring System (Omnitech Electronics, Columbus, Ohio) to quantify locomotor activity. Animals were kept under a 12 h light/dark cycle and experiments were performed during the light period. Each activity monitoring chamber consisted of a Plexiglas box (41×41×28 cm; W×L×H) with sawdust bedding on the floor surrounded by invisible horizontal and vertical infrared sensor beams. The test boxes were divided by a Plexiglas cross providing each mouse with 20×20 cm of moving space. Cages were connected to a Digiscan Analyzer linked to a computer that constantly collected the beam status information. Records of photocell beam interruptions for individual animals were taken every 5 min over the duration of the experimental session and the sum of the first 6 periods was used as the final parameter. Compounds were administered either p.o. 15 min before a s.c. injection of 50 mg/kg of L-687,414, or i.p. at the same time as a s.c. injection of 50 mg/kg of L-687,414. Mice were then transferred from their home cage to the recording chambers for a 15-min habituation phase allowing free exploration of the new environment. Horizontal activity was then recorded for a 30-min time period. The % inhibition of L-687,414-induced hyperlocomotion was calculated according to the equation: ((Veh+L-687,414 horizontal activity−drug+L-687,414 horizontal activity)/Veh+L−687,414 horizontal activity)×100
ID50 values, defined as doses of each compound producing 50% inhibition of L-687,414-induced hyperlocomotion, were calculated by linear regression analysis of a dose-response data using an Excel-based computer-fitting program.
As data was not presupposed to be normally distributed, groups treated with test compounds were statistically compared with the control (vehicle-treated) group using one-tailed Mann Whitney U tests. In statistics, the Mann-Whitney U test (also called the Mann-Whitney-Wilcoxon (MWW) or Wilcoxon rank-sum test) is a non-parametric statistical hypothesis test for assessing whether one of two samples of independent observations tends to have larger values than the other. It is one of the most well-known non-parametric significance tests. […] P values given in table 1 are one-tailed since only decreases in locomotion were expected and tested for (Mann, H. B., Whitney, D. R. (1947), “On a Test of Whether one of Two Random Variables is Stochastically Larger than the Other”, Annals of Mathematical Statistics, 18 (1), 50-60).

Row | Compound | inhibition in vivo at 30 mg/kg
1 | CN1C(=O)C(C)(C)c2ccc(-n3cnc(-c4ccncc4)c3)cc21 [Example 20, 1,3,3-Trimethyl-6-(4-(pyridin-4-yl)-1H-imidazol-1-yl)indolin-2-one] | 64.4%
2 | CN1C(=O)C(C)(C)c2ccc(-n3cc(-c4cccnc4)cn3)cc21 [Example 41, 1,3,3-Trimethyl-6-(4-(pyridin-3-yl)-1H-pyrazol-1-yl)indolin-2-one] | 50.3%
3 | Cc1ccc(N2C(=O)C(C)(C)c3ccc(-c4cn(-c5ccncc5F)cn4)cc32)cn1 [Example 102, 6-[1-(3-Fluoro-4-pyridyl)imidazol-4-yl]-3,3-dimethyl-1-(6-methyl-3-pyridyl)indolin-2-one] | 65.6%
4 | Cc1cnc(-n2cnc(-c3ccc4c(c3)N(C)C(=O)C4(C)C)c2)nc1 [Example 119, 1,3,3-Trimethyl-6-(1-(5-methylpyrimidin-2-yl)-1H-imidazol-4-yl)indolin-2-one] | 48.1%
5 | CC1(C)C(=O)N(C2COC2)c2cc(-n3cc(-c4cccnc4)cn3)ccc21 [Example 43, 3,3-Dimethyl-1-(oxetan-3-yl)-6-(4-(pyridin-3-yl)-1H-pyrazol-1-yl)indolin-2-one] | 47.3%
6 | Cc1cnccc1-n1cnc(-c2ccc3c(c2)N(c2ccn(C)n2)C(=O)C3(C)C)c1 [Example 115, 3,3-Dimethyl-1-(1-methylpyrazol-3-yl)-6-[1-(3-methyl-4-pyridyl)imidazol-4-yl]indolin-2-one] | 74.1%
7 | Cc1ccc(-c2ncc(-c3ccc4c(c3)N(C)C(=O)C4(C)C)cn2)cn1 [Example 101, 1,3,3-Trimethyl-6-(2-(6-methylpyridin-3-yl)pyrimidin-5-yl)indolin-2-one] | 78.4%
8 | Cc1cnccc1-n1cnc(-c2ccc3c(c2)N(C)C(=O)C3(C)C)c1 [Example 88, 1,3,3-Trimethyl-6-(1-(3-methylpyridin-4-yl)-1H-imidazol-4-yl)indolin-2-one] | 93.1%
9 | Cc1ncc(N2C(=O)C(C)(C)c3ccc(-c4cn(-c5ccncc5C)cn4)cc32)cn1 [Example 116, 3,3-Dimethyl-6-[1-(3-methyl-4-pyridyl)imidazol-4-yl]-1-(2-methylpyrimidin-5-yl)indolin-2-one] | 74.3%
10 | Cc1nc(-c2ccc3c(c2)N(C)C(=O)C3(C)C)cn1-c1ccncc1 [Example 77, 1,3,3-Trimethyl-6-(2-methyl-1-(pyridin-4-yl)-1H-imidazol-4-yl)indolin-2-one] | 89.4%
11 | Cc1ccc(N2C(=O)C(C)(C)c3ccc(-c4cn(-c5ccnc(C)c5)cn4)cc32)cn1 [Example 104, 3,3-Dimethyl-1-(6-methyl-3-pyridyl)-6-[1-(2-methyl-4-pyridyl)imidazol-4-yl]indolin-2-one] | 64.8%
12 | Cc1cc(-c2ncc(-c3ccc4c(c3)N(C)C(=O)C4(C)C)o2)ccn1 [Example 22, 1,3,3-Trimethyl-6-(2-(2-methylpyridin-4-yl)oxazol-5-yl)indolin-2-one] | 55.9%
13 | Cc1ccc(-c2cc(-c3ccc4c(c3)N(C)C(=O)C4(C)C)n[nH]2)cn1 [Example 80, 1,3,3-Trimethyl-6-(5-(6-methylpyridin-3-yl)-1H-pyrazol-3-yl)indolin-2-one] | 62.6%
14 | CC1(C)C(=O)N(C2COC2)c2cc(-c3nnc(-c4ccncc4)o3)ccc21 [Example 11, 3,3-Dimethyl-1-(oxetan-3-yl)-6-(5-(pyridin-4-yl)-1,3,4-oxadiazol-2-yl)indolin-2-one] | 80.9%
15 | Cc1ccc(-c2cnn(-c3ccc4c(c3)N(C3CC3)C(=O)C4(C)C)c2)cn1 [Example 69, 1-Cyclopropyl-3,3-dimethyl-6-(4-(6-methylpyridin-3-yl)-1H-pyrazol-1-yl)indolin-2-one] | 53.3%
16 | CN1C(=O)C(C)(C)c2ccc(-c3cnn(-c4cccnc4)c3)cc21 [Example 50, 1,3,3-Trimethyl-6-(1-(pyridin-3-yl)-1H-pyrazol-4-yl)indolin-2-one] | 44%
17 | Cc1cc(-c2cnn(-c3ccc4c(c3)N(C3CC3)C(=O)C4(C)C)c2)ccn1 [Example 55, 1-Cyclopropyl-3,3-dimethyl-6-(4-(2-methylpyridin-4-yl)-1H-pyrazol-1-yl)indolin-2-one] | 42.7%
18 | Cc1cnccc1-n1cnc(-c2ccc3c(c2)N(c2cn(C)cn2)C(=O)C3(C)C)c1 [Example 114, 3,3-Dimethyl-1-(1-methylimidazol-4-yl)-6-[1-(3-methyl-4-pyridyl)imidazol-4-yl]indolin-2-one] | 64.9%
19 | Cc1cc(N2C(=O)C(C)(C)c3ccc(-c4cn(-c5ccncc5C)cn4)cc32)ccn1 [Example 106, 3,3-Dimethyl-1-(2-methyl-4-pyridyl)-6-[1-(3-methyl-4-pyridyl)imidazol-4-yl]indolin-2-one] | 68.4%
20 | Cc1cc(-n2cnc(-c3ccc4c(c3)N(c3ccn(C)n3)C(=O)C4(C)C)c2)ccn1 [Example 112, 3,3-Dimethyl-1-(1-methylpyrazol-3-yl)-6-[1-(2-methyl-4-pyridyl)imidazol-4-yl]indolin-2-one] | 52.5%
21 | CN1C(=O)C(C)(C)c2ccc(-c3coc(-c4cccnc4)n3)cc21 [Example 44, 1,3,3-Trimethyl-6-(2-(pyridin-3-yl)oxazol-4-yl)indolin-2-one] | 52.1%
22 | CN1C(=O)C(C)(C)c2ccc(-c3cnc(-c4cccnc4)o3)cc21 [Example 7, 1,3,3-Trimethyl-6-(2-(pyridin-3-yl)oxazol-5-yl)indolin-2-one] | 83.9%
23 | Cc1cc(-n2cnc(-c3ccc4c(c3)NC(=O)C4(C)C)c2)c(F)cn1 [Example 132, 6-[1-(5-Fluoro-2-methyl-4-pyridyl)imidazol-4-yl]-3,3-dimethyl-indolin-2-one trifluoroacetate] | 71.1%
24 | Cc1cc(-c2cnn(-c3ccc4c(c3)N(C)C(=O)C4(C)C)c2)ccn1 [Example 54, 1,3,3-Trimethyl-6-(4-(2-methylpyridin-4-yl)-1H-pyrazol-1-yl)indolin-2-one] | 41.6%
25 | Cc1cc(-n2cnc(-c3ccc4c(c3)N(C3CC3)C(=O)C4(C)C)c2)ccn1 [Example 74, 1-Cyclopropyl-3,3-dimethyl-6-(1-(2-methylpyridin-4-yl)-1H-imidazol-4-yl)indolin-2-one] | 71.4%
26 | CC1(C)C(=O)N(C2CC2)c2cc(-n3cc(-c4cccnc4)cn3)ccc21 [Example 52, 1-Cyclopropyl-3,3-dimethyl-6-(4-(pyridin-3-yl)-1H-pyrazol-1-yl)indolin-2-one] | 82.1%

Same assay, conditions: dose ip 30 mg/kg at the same time as s.c. 50 mg/kg L-687,414; horizontal activity over 30 min

Row | Compound | Inhibition, ip
27 | 1,3,3-Trimethyl-6-(3-pyridin-4-yl-isoxazol-5-yl)-1,3-dihydro-indol-2-one [Example 42] | 58.4%
28 | 6-[1-(3-Fluoro-4-pyridyl)imidazol-4-yl]-3,3-dimethyl-1-(2-methylpyrimidin-5-yl)indolin-2-one [Example 110] | 85.4%
29 | 3,3-Dimethyl-6-[1-(2-methyl-4-pyridyl)imidazol-4-yl]-1-(2-methylpyrimidin-5-yl)indolin-2-one [Example 113] | 69.9%
30 | 1,3,3-Trimethyl-6-(4-(pyridin-3-yl)-1H-imidazol-1-yl)indolin-2-one [Example 29] | 80.3%
31 | 1-Cyclopropyl-3,3-dimethyl-6-(2-(2-methylpyridin-4-yl)oxazol-5-yl)indolin-2-one [Example 12] | 49.1%

Same assay, conditions: dose producing 50% inhibition of L-687,414-induced hyperlocomotion; p.o. 15 min before s.c. 50 mg/kg L-687,414; doses 1-3-10 (Expl. 2: 3-10-30) mg/kg

Row | Compound | ID50 po
32 | CN1C(=O)C(C)(C)c2ccc(-c3cn(-c4ccncc4F)cn3)cc21 [Example 73, 6-(1-(3-Fluoropyridin-4-yl)-1H-imidazol-4-yl)-1,3,3-trimethylindolin-2-one] | 2.97 mg/kg
33 | Cc1ccc(-c2ncc(-c3ccc4c(c3)N(C3CC3)C(=O)C4(C)C)o2)cn1 [Example 33, 1-Cyclopropyl-3,3-dimethyl-6-(2-(6-methylpyridin-3-yl)oxazol-5-yl)indolin-2-one] | 3.36 mg/kg
